pIC50: −log10 of the molar value. Calls of active or inactive are those of the source.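 How the source made its calls: active means IC50 at or below a set limit above the highest tested dose; inconclusive means flat curve with 30 to 70% inhibition, or poor fit; inactive means the rest.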
What follows are compounds tested against Glycogen synthase kinase-3 beta (Homo sapiens) (UniProt P49841) (assay: concentration-response blocking of human GSK3B – biochemical, luminescence, cell-free homogeneous, retest, dose response (AID 434954)). Details: recombinant GSK3beta, ADP-Glo luminescence, 60 min.
Sequence of Glycogen synthase kinase-3 beta (Homo sapiens) (P49841 whole entry, looked up): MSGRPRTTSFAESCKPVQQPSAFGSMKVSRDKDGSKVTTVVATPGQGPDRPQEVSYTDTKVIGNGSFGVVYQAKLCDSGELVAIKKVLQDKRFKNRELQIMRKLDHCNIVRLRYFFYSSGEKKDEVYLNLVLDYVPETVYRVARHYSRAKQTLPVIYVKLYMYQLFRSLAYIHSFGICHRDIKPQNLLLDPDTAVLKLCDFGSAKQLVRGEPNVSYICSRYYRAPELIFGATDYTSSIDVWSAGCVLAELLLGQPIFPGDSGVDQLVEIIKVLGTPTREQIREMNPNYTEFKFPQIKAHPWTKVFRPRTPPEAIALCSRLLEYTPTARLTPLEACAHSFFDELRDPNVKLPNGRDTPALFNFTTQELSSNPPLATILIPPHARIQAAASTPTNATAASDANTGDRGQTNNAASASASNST

| SMILES | pIC50 | IC50 |
| --- | --- | --- |
| O=C(O)c1ccc(N=Nc2c(O)[nH]c3cc(Cl)ccc23)cc1 | 4.72 | – |
| Fc1cccc(/C=N/Nc2ncnc3nc[nH]c23)c1 | 4.93 | – |
| O=C(O)c1cc(N/N=C/c2ccc(-c3ccc(F)cc3)o2)ccc1Cl | – | > 30 µM (inactive) |
| COc1cccc(C2Nc3ccccc3NC3=C2C(=O)CC(C)(C)C3)c1 (configuration not stated) | – | > 30 µM (inactive) |
| CN(C)C=NC(=O)/C(C#N)=C1\CCc2ccccc2N1 | 4.70 | – |
| N#Cc1c(N)nc2c3c(sc(=N)c2c1N)NC(=O)CC3c1ccccc1 (configuration not stated) | – | > 30 µM (inactive) |
| Oc1ccccc1/C=N/Nc1nn[nH]n1 | – | > 30 µM (inactive) |
| Cc1ccc(-c2nn(-c3ccccc3)cc2/C=N/O)cc1 | 6.25 | – |
| O=C(N/N=C/c1ccc(O)c(O)c1)N/N=C/c1ccc(O)c(O)c1 | 4.88 | – |
| N#CC(=C=[N-])c1nc2ccccc2nc1-[n+]1cccc(NC(=O)c2ccccc2)c1 | – | > 30 µM (inactive) |
| Oc1ccc(/C=N/Nc2ccc(C(F)(F)F)cn2)cc1O | 4.79 | – |
| C/C(=N\O)c1ncc(C(F)(F)F)cc1Cl | – | > 30 µM (inactive) |
| CCc1ccc(C2NC(=S)NC3=C2C(=O)CC(C)(C)C3)cc1 (configuration not stated) | – | > 30 µM (inactive) |
| COc1cccc(C2C(C#N)=C(C)NC3=C2C(=O)CC(C)(C)C3)c1 (configuration not stated) | – | > 30 µM (inactive) |
| CCOc1cc(C2C(C(=O)N3CCCCC3)=C(C)NC3=C2C(=O)CC(C)(C)C3)ccc1O (configuration not stated) | – | > 30 µM (inactive) |
| CSc1nc2c(c(=O)[nH]1)C(c1cccs1)C1=C(CCCC1=O)N2 (configuration not stated) | – | > 30 µM (inactive) |
| CC[n+]1c(/C=C/Nc2ccccc2)sc2ccccc21 | – | > 30 µM (inactive) |
| Cc1ccc(C2C3=C(CC(C)(C)CC3=O)Nc3[nH]c(=S)[nH]c(=O)c32)cc1 (configuration not stated) | – | > 30 µM (inactive) |
| Cc1nn(-c2ccccn2)c2c1C(c1ccsc1)C1=C(CCCC1=O)N2 (configuration not stated) | – | > 30 µM (inactive) |
| CCCC1=C(C(=O)OCC)C(c2sccc2C)n2ncnc2N1 (configuration not stated) | – | > 30 µM (inactive) |
| CCOC(=O)C1=C(C)Nc2ncnn2C1c1ccccc1F (configuration not stated) | – | > 30 µM (inactive) |
| COc1ccc(C2C(C#N)=C(C)NC3=C2C(=O)CC(C)(C)C3)cc1 (configuration not stated) | – | > 30 µM (inactive) |
| CCOC(=O)C1=C(C)Nc2ncnn2C1c1cc(OC)ccc1OC (configuration not stated) | – | > 30 µM (inactive) |
| CC1=C(C#N)C(c2ccc(O)cc2)C2=C(CC(C)(C)CC2=O)N1 (configuration not stated) | – | > 30 µM (inactive) |
| CC1=C(C(N)=O)C(c2sccc2C)n2nnnc2N1 (configuration not stated) | – | > 30 µM (inactive) |
| Nc1ncnc2c1ncn2[C@@H]1O[C@H](CO)[C@@H](O)[C@H]1O | – | > 30 µM (inactive) |

| SMILES | pIC50 | IC50 |
| --- | --- | --- |
| O=C(CC1SC(N2CCCCC2)=NC1=O)Nc1cccc(C(F)(F)F)c1 (configuration not stated) | – | > 30 µM (inactive) |
| O=C1CCCC2=C1C(c1cccs1)Nc1ccccc1N2 (configuration not stated) | – | > 30 µM (inactive) |
| CC1=C(C(=O)OCc2ccccc2)C(c2cccnc2)n2ncnc2N1 (configuration not stated) | 4.55 | – |
| COc1cc(/C=N/Nc2ccc(C(F)(F)F)cn2)ccc1O | 5.00 | – |
| COc1ccc(C2C(C(C)=O)=C(O)C(=O)N2c2nccs2)c(OC)c1 (configuration not stated) | – | > 30 µM (inactive) |
| COc1cc(/C=N/NC(=O)c2ccc(O)cc2)ccc1Oc1ccc([N+](=O)[O-])cn1 | – | > 30 µM (inactive) |
| CCCCCOC(=O)C1=C(C)Nc2ncnn2C1c1cccs1 (configuration not stated) | – | > 30 µM (inactive) |
| COc1cccc(C2C3=C(CC(C)(C)CC3=O)Nc3cc4c(cc32)OCO4)c1 (configuration not stated) | – | > 30 µM (inactive) |
| COc1ccc(C2CC(=O)C3=C(C2)Nc2ncnn2C3c2ccccc2C)cc1 (configuration not stated) | – | > 30 µM (inactive) |
| O/N=C/c1cn(-c2ccccc2)nc1-c1ccccc1 | 4.59 | – |
| CCOC(=O)C1=C(C)Nc2ncnn2C1c1c[nH]c2ccccc12 (configuration not stated) | 5.33 | – |
| CC1=C(C(=O)OC(C)C)C(c2c[nH]c3ccccc23)n2ncnc2N1 (configuration not stated) | 5.74 | – |
| CC1(C)CC(=O)C2=C(C1)Nc1cc3c(cc1C2c1ccc(F)cc1)OCO3 (configuration not stated) | – | > 30 µM (inactive) |
| O=c1[nH]c(=O)n(Cc2ccc(F)cc2)c(O)c1C=NCCN1CCCCC1 | – | > 30 µM (inactive) |
| Cc1[nH]nc2c1C(c1ccc(F)cc1)C1=C(CC(C)(C)CC1=O)N2 (configuration not stated) | 5.41 | – |
| O=c1[nH]c(N/N=C/c2ccccc2)nc2ccccc12 | – | > 30 µM (inactive) |
| Cc1ccc(C2C3=C(CC(C)(C)CC3=O)Nc3n[nH]c(C)c32)cc1 (configuration not stated) | 5.03 | – |
| Cc1ccc2c(c1)NC(c1cccs1)C1=C(CC(C)(C)CC1=O)N2 (configuration not stated) | – | > 30 µM (inactive) |
| O=C(NCCCN1CCCC1=O)c1c(O)nc2sccn2c1=O | – | > 30 µM (inactive) |
| Cc1ccsc1/C=N/Nc1ncnc2nc[nH]c12 | 5.05 | – |
| COc1cccc(C2C3=C(CC(C)(C)CC3=O)Nc3n[nH]c(C)c32)c1 (configuration not stated) | 6.02 | – |
| CSc1nc2n(n1)C(c1cccs1)C1=C(CCCC1=O)N2 (configuration not stated) | – | > 30 µM (inactive) |
| O=C(Nc1cccc2c1C(=O)NC2=O)c1cccc(N2C(=O)CCC2=O)c1 | – | > 30 µM (inactive) |
| O=C1C(=O)N(c2ccccn2)C(c2ccc(Br)cc2)/C1=C(/O)c1ccc(Br)cc1 (configuration not stated) | – | > 30 µM (inactive) |
| CCN(CC)S(=O)(=O)c1cccc(N2CC(O)=C(c3ccccc3)C2=N)c1 | – | > 30 µM (inactive) |
| CCCC1=C(C(=O)OCC)C(c2cccs2)n2ncnc2N1 (configuration not stated) | 4.64 | – |
